The species named for experiment [1] is Rattus norvegicus. Put plainly: Antagonism against angiotensin II induced contraction in Rat uterine preparation. The format is functional. The note with it: read-out: pA2 (converted).
Experiment [2] relates to Rattus norvegicus. Put plainly: The compound was tested in vivo for pressor activity in Rat uterine preparation. The format is functional.

SMILES strings stand for the structures. Where a SMILES comes first, the peptide text is derived from it. [ ]: non-standard residue; d: D form. Phe(4-N(CH2CH2Cl)2) = N[C@@H](Cc1ccc(N(CCCl)CCCl)cc1)C(=O)O

Take `CC[C@H](C)[C@H](NC(=O)[C@H](Cc1ccc(O)cc1)NC(=O)[C@@H](NC(=O)[C@H](CCCN=C(N)N)NC(=O)[C@H](CC(N)=O)NC(C)=O)C(C)C)C(=O)N[C@@H](Cc1c[nH]cn1)C(=O)N1CCC[C@H]1C(=O)N[C@@H](Cc1ccc(N(CCCl)CCCl)cc1)C(=O)O` (Ac-NRVYIHP[Phe(4-N(CH2CH2Cl)2)]-OH): the Kb in the experiment listed under Rattus norvegicus [1] is 3.16 nM.

For the compound `CC[C@H](C)[C@@H](NC(=O)[C@H](Cc1ccc(O)cc1)NC(=O)[C@@H](NC(=O)[C@H](CCCNC(N)N)NC(=O)[C@@H](N)CC(=O)O)C(C)C)[C@@H](C)N[C@@H](Cc1c[nH]cn1)C(=O)N1CCC[C@@H]1C(=O)N[C@@H](Cc1ccc(N(CCCl)CCCl)cc1)C(=O)O`, the Activity with Rattus norvegicus [2] worked out at 0.3%.
